# ChEMBL document CHEMBL1133627, “4-Anilino-6,7-dialkoxyquinoline-3-carbonitrile inhibitors of epidermal growth factor receptor kinase and their bioisosteric relationship to the 4-anilino-6,7-dialkoxyquinazoline inhibitors” (J Med Chem, 2000)
# Experiments:
# SW-620 = assay: Concentration needed to inhibit 50% growth of human SW620 (colon carcinoma) cell lines; type: functional, cell-based
# [1] = target: Epidermal growth factor receptor and ErbB2 (HER1 and HER2) (Homo sapiens, UniProt P04626+P00533); assay: Concentration needed to inhibit the autophosphorylation of the cytoplasmic domain of Epidermal growth factor receptor using DELFIA/time-resolved fluorimetry.; type: protein assay
# A-431 = assay: Concentration needed to inhibit 50% growth of the human A431 (epidermoid carcinoma) cell lines; type: functional, cell-based
# SK-BR-3 = assay: Concentration needed to inhibit 50% growth of human SKBr3 (breast carcinoma) cell lines; type: functional, cell-based
SMILES,IC50 (SW-620),IC50 [1],IC50 (A-431),IC50 (SK-BR-3)
CCOc1cc2ncc(C#N)c(Nc3cccc(Br)c3)c2cc1OCC,0.16 µM,0.42 µM,0.11 µM,0.09 µM
COc1cc2c(C#N)cnc(Nc3cccc(Cl)c3)c2cc1OC,64.5 µM,88.29 µM,26.1 µM,27.7 µM
COc1cc2ncc(C#N)c(Nc3ccc(C)c(Cl)c3)c2cc1OC,25 µM,1.48 µM,0.93 µM,0.94 µM
COc1cc2ncc(C#N)c(Nc3cccc(Cl)c3)c2cc1OC,7.06 µM,0.18 µM,0.59 µM,1.76 µM
COc1cc2ncc(C#N)c(Nc3ccccc3Br)c2cc1OC,17 µM,4.18 µM,21 µM,0.8 µM
COc1cc2ncc(C#N)c(Nc3cccc(C(C)C)c3)c2cc1OC,3.8 µM,62.32 µM,4.35 µM,6.74 µM
COc1cc2ncc(C#N)c(Nc3cccc(N)c3)c2cc1OC,14.3 µM,0.82 µM,6.62 µM,2.45 µM
COc1cc2ncc(C#N)c(Nc3ccc(Br)c(C)c3)c2cc1OC,3.09 µM,0.62 µM,0.73 µM,1.38 µM
COc1cc2ncc(C#N)c(Nc3ccc(O)c(Cl)c3)c2cc1OC,2.75 µM,9.04 µM,3.01 µM,1.29 µM
COc1cc2ncc(C#N)c(Nc3cccc(C#N)c3)c2cc1OC,43.3 µM,14.18 µM,3.51 µM,26 µM
COCOc1cc2ncc(C#N)c(Nc3cccc(Br)c3)c2cc1OCOC,9.79 µM,6.75 µM,14.5 µM,14.2 µM
COc1cc2ncc(C#N)c(Nc3ccc(C)c(Br)c3)c2cc1OC,2.89 µM,1.79 µM,0.75 µM,0.55 µM
N#Cc1cnc2cc3c(cc2c1Nc1cccc(Br)c1)OCCO3,0.43 µM,> 104.7 µM,0.42 µM,0.27 µM
COc1cc2ncc(C#N)c(Nc3ccc(Cl)cc3F)c2cc1OC,5.34 µM,13.85 µM,0.818 µM,0.54 µM
COc1cc2ncc(C#N)c(Nc3cccc(Br)c3C)c2cc1OC,11.8 µM,0.84 µM,3.64 µM,0.39 µM
COc1cc2ncc(C#N)c(Nc3cccc(SC)c3)c2cc1OC.Cl,4.98 µM,0.76 µM,1.45 µM,1.54 µM
COc1cc2ncc(C#N)c(Nc3ccc(Br)cc3F)c2cc1OC.Cl,19.2 µM,> 91.2 µM,0.89 µM,1.69 µM
CCOc1cc2ncc(C#N)c(Nc3ccc(F)c(Cl)c3)c2cc1OCC,0.49 µM,0.98 µM,0.27 µM,0.49 µM
N#Cc1cnc2cc3c(cc2c1Nc1cccc(Br)c1)OCCCO3,2.9 µM,5.15 µM,2.08 µM,5.07 µM
COc1cc2ncc(C#N)c(Nc3cc(Cl)c(O)c(Cl)c3)c2cc1OC,3.43 µM,3.15 µM,3.14 µM,2.02 µM
COc1cc2ncc(C#N)c(Nc3ccc(F)cc3)c2cc1OC,2.87 µM,47.94 µM,1.43 µM,0.74 µM

# The remaining lines, values ahead:
IC50 (SW-620),IC50 [1],IC50 (A-431),IC50 (SK-BR-3),SMILES
5.24 µM,3.37 µM,1.95 µM,2.97 µM,COc1cc2ncc(C=O)c(Nc3cccc(Br)c3)c2cc1OC
4.24 µM,21.19 µM,0.57 µM,0.64 µM,CCOc1cc2c(Nc3cccc(Br)c3)c(C#N)cnc2cc1OC
7.8 µM,6.36 µM,1.52 µM,0.95 µM,COc1cc2ncc(C#N)c(Nc3cccc(O)c3)c2cc1OC
3.72 µM,,0.78 µM,0.48 µM,COc1cc2ncc(C#N)c(Nc3cccc(Br)c3)c2cc1OC
0.06 µM,33.02 µM,0.14 µM,0.06 µM,CCOc1cc2ncc(C#N)c(Nc3cccc(Br)c3)c2cc1OC
6.29 µM,7.69 µM,5.91 µM,8.44 µM,COc1cc2ncc(C#N)c(Nc3cccc(C(N)=O)c3)c2cc1OC
2.74 µM,69.4 µM,2.62 µM,1.55 µM,COc1cc2ncc(C#N)c(Nc3cccc(NC(C)=O)c3)c2cc1OC
23.2 µM,> 102.2 µM,7.91 µM,15.4 µM,COc1cc2ncc(CO)c(Nc3cccc(Br)c3)c2cc1OC
6.93 µM,> 81.3 µM,3.01 µM,6.21 µM,CCOC(=O)c1cnc2cc(OC)c(OC)cc2c1Nc1cccc(Br)c1
53.8 µM,34.22 µM,18.2 µM,35.7 µM,COc1cc2ncc(C(=O)O)c(Nc3cccc(Br)c3)c2cc1OC
